US7067491B2, “Heterocyclic compounds having elastase-inhibiting activity and intermediates thereof” (Dainippon Pharmaceutical Co., Ltd., priority 2002, dated 2006)
pIC50: −log10 of the molar value.

Legend:
[1] = biological target: T1, porcine pancreas elastase (Sus scrofa, UniProt P00772); assay: Inhibitory activity against porcine pancreas elastase; type: biochemical; details: porcine pancreas elastase 40 ng/ml, substrate Suc-Ala-Ala-Ala-pNA 2.5 mM
T1 construct: purchased Elastin Products Co., Inc
T1 sequence (P00772 27-266): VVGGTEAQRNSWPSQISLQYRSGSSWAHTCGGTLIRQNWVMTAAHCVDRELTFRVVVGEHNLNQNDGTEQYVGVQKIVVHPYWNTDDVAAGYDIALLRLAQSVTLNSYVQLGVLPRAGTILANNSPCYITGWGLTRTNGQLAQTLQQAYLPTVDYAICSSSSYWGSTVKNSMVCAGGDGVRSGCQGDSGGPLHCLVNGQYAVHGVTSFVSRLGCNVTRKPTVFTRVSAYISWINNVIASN
Procedure: Experiment 2: Inhibitory Activity Against Porcine Pancreas Elastase
The inhibitory activity was measured in the same manner as experiment 1, except for using porcine pancreas elastase (Elastin Products Co., Inc., final concentration 40 ng/ml) as a target enzyme and Suc-Ala-Ala-Ala-pNA (succinyl-alanyl-alanyl-alanyl-p-nitroanilide, Peptide Research, final concentration 2.5 mM) as a substrate.

[2] = tested on: pulmonary hemorrhage induced by human neutrophil elastase (HNE); assay: Inhibitory activity on pulmonary hemorrhage induced by human neutrophil elastase (HNE); type: in vivo; details: hamster; for ED50: Homo sapiens, Neutrophil, po, orally administered 30 minutes prior to intratracheal HNE, hemoglobin in bronchoalveolar lavage fluid after 1 hour; for Pulmonary hemorrhage inhibitory rate (%): dose 3 mg/kg orally, 30 minutes prior to HNE
From the text: Experiment 3: Inhibitory Activity on Pulmonary Hemorrhage Induced by Human Neutrophil Elastase (HNE)
This experiment tested on in vivo efficacy of the compound of the present invention. When human neutrophil elastase is intratracheally administered to a hamster, the pulmonary hemorrhage is induced. A definite time later after administration of the elastase, in the bronchoalveolar lavage fluid by washing lung via trachea, hemoglobin is detected.
Hamsters (Syrian strain, 7–10 weeks old male) were divided into groups consisting of 3 to 6, and each group was treated as follows:
(A) A Group to which the Compound of the Present Invention was not Administered (Disease Control):
Physiological saline solution (0.2 ml) in which 25 unit of human neutrophil elastase (Elastin Product Co., Inc.) was dissolved was intratracheally administered to a hamster to induce the pulmonary hemorrhage. One hour later after administration of elastase, the hamsters were sacrificed by exsanquination, and alveoli were transtracheally washed twice with physiological saline (2.5 ml), and the hemoglobin concentration in the bronchoalveolar lavage fluid (5 ml) was determined by measuring the absorbance at 414 nm.
(B) A Group to which the Compound of the Present Invention was Administered:
A fixed amount of the compound of the present invention was dissolved in dimethyl sulfoxide (DMSO), and thereto was added 0.5% tragacanth gum to prepare a suspension. The suspension was orally administered to a hamster, 30 minutes prior to the administration of human neutrophil elastase (HNE) (final concentration of DMSO, 1%), and then, human neutrophil elastase was administered in the same manner as the above method (A). After 1 hour, the concentration of hemoglobin in the bronchoalveolar lavage fluid was determined in the same manner as the above method (A).
The hemorrhage inhibition activity of the compound of the present invention is represented as the hemorrhage inhibiting rate in the following formula.
The dose of the compound of the present invention to be required to achieve 50% inhibition of pulmonary hemorrhage (i.e., ED50) was calculated based on the administration dose-hemorrhage inhibiting rate curve.
As a comparative example, the same experiment was also carried out on a comparative compound used in Experiment 1.
Some of the compounds of the present invention were compared with the comparative compound on the hemorrhage inhibitory rate at the dose of 3 mg/kg.

[3] = biological target: T2, human neutrophil elastase (Homo sapiens, UniProt P08246); assay: Inhibitory activity on human neutrophil elastase (HNE) in vitro; type: biochemical; details: human neutrophil elastase 0.2 U/ml, substrate MeO-Suc-Ala-Ala-Pro-Val-pNA 0.5 mM, 37° C., pH 7.5
T2 construct: purchased Elastine Product Co., Inc
T2 sequence (P08246 30-267): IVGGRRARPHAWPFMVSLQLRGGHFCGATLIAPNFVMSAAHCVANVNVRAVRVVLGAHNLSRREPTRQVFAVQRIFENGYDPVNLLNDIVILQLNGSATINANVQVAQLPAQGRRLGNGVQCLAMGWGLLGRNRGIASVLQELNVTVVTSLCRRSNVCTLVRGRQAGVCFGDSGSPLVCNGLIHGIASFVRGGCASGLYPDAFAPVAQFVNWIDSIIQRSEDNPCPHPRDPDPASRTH
Procedure: Experiment 1: Inhibitory Activity on Human Neutrophil Elastase (HNE)
The inhibitory activity of the compound of the present invention in vitro on human neutrophil elastase was examined by this experiment.
To 100 mM of HEPES {[N-(2-hydroxyethyl)piperazine-N′-(2-ethanesulfonic acid)], pH 7.5}buffer solution containing 1M NaCl and 0.001% Brij-35 (polyoxyethylene lauryl ether) were added human neutrophil elastase (final concentration: 0.2 U/ml, Elastine Product Co., Inc.) and the compound of the present invention (dissolved in 10% dimethyl sulfoxide; final concentration: 10^−10˜3×10^−3 M). The mixture was pre-incubated for 3 minutes at 37° C. Thereto was added MeO-Suc-Ala-Ala-Pro-Val-pNA (methoxysuccinyl-alanyl-alanyl-prolyl-valyl-p-nitroanilide (Sigma Chemical Co.)) as a substrate to give the final concentration of 0.5 mM, and the reaction was initiated. Under this condition, the producing rate of the reaction product, p-nitroanilide (pNA) at 37° C. was estimated by measuring the absorbance at 404 nm for 3 minutes.
The inhibitory activity of the compound of the present invention against human neutrophil elastase (HNE) is calculated according to the following formula.
The concentration of the compound of the present invention to be required to achieve 50% HNE inhibition (i.e., IC50) was calculated based on the concentration-inhibitory rate curve of the compound of the present invention.
As a comparative compound, N-[(1S)-2-((2S)-2-{N-[(1S)-3,3,3-trifluoro-1-(methylethyl)-2-oxopropyl]carbamoyl}pyrrolidinyl)-1-(methylethyl)-2-oxoethyl](imidazol-4-yl)carboxamide was used, and the same assay was carried out. The planar structure of this compound was the same as one of compound (22) disclosed in J. Med. Chem., 1997, 40, 1876–1885.

ICR mice = assay: Acute toxicity; type: in vivo; details: male ICR mice (5 mice), 300 mg/kg orally, after 24 hours
Procedure: Experiment 5: Acute Toxicity
The compound of the present invention (each compound of Example 10, Example 11, Example 15, Example 25, and Example 40) was suspended in 0.5% tragacanth gum and the suspension was orally administered to 7 weeks old, male ICR mice (5 mice) at 300 mg/kg.

| Compound | pIC50 [1] | ED50 [2] | pIC50 [3] | Acute toxicity: death or not (ICR mice) | Pulmonary hemorrhage inhibitory rate (%) [2] |
| --- | --- | --- | --- | --- | --- |
| Cc1noc(C)c1C(=O)N[C@H](C(=O)N1CCC[C@H]1C(=O)N[C@H](C(=O)C(F)(F)F)C(C)C)C(C)C [Example 1, N-[(1S)-2-((2S)-2-{N-[(1S)-3,3,3-trifluoro-1-(methylethyl)-2-oxopropyl]carbamoyl}pyrrolidinyl)-1-(methylethyl)-2-oxoethyl](3,5-dimethylisoxazol-4-yl)carboxamide] | 6.81 | 2.6 mg/kg | 7.77 |  |  |
| CC(C)[C@H](NC(=O)c1noc2ccccc12)C(=O)N1CCC[C@H]1C(=O)N[C@H](C(=O)C(F)(F)F)C(C)C [Example 2, N-[(1S)-2-((2S)-2-{N-[(1S)-3,3,3-trifluoro-1-(methylethyl)-2-oxopropyl]carbamoyl}pyrrolidinyl)-1-(methylethyl)-2-oxoethyl](benzo [d]isoxazol-3-yl)carboxamide] | 6.67 | 0.86 mg/kg | 8.09 |  |  |
| Cc1nnsc1C(=O)N[C@H](C(=O)N1CCC[C@H]1C(=O)N[C@H](C(=O)C(F)(F)F)C(C)C)C(C)C [Example 3, N-[(1S)-2-((2S)-2-{N-[(1S)-3,3,3-trifluoro-1-(methylethyl)-2-oxopropyl]carbamoyl}pyrrolidinyl)-1-(methylethyl)-2-oxoethyl]-(4-methyl-1,2,3-thiadiazol-5-yl)carboxamide] | 6.81 | 1.6 mg/kg | 7.89 |  |  |
| Cc1c(C(=O)N[C@H](C(=O)N2CCC[C@H]2C(=O)N[C@H](C(=O)C(F)(F)F)C(C)C)C(C)C)cnn1-c1ccccc1 [Example 10, N-[(1S)-2-((2S)-2-{N-[(1S)-3,3,3-trifluoro-1-(methylethyl)-2-oxopropyl]carbamoyl}pyrrolidinyl)-1-(methylethyl)-2-oxoethyl]-(5-methyl-1-phenylpyrazol-4-yl)carboxamide] |  | 1.1 mg/kg | 8.00 | all were alive |  |
| COc1cc(C(=O)N[C@H](C(=O)N2CCC[C@H]2C(=O)N[C@H](C(=O)C(F)(F)F)C(C)C)C(C)C)on1 [Example 11, N-[(1S)-2-((2S)-2-{N-[(1S)-3,3,3-trifluoro-1-(methylethyl)-2-oxopropyl]carbamoyl}pyrrolidinyl)-1-(methylethyl)-2-oxoethyl]-(3-methoxyisoxazol-5-yl)carboxamide] |  | 1.5 mg/kg | 7.57 | all were alive |  |
| CC(C)Oc1cc(C(=O)N[C@H](C(=O)N2CCC[C@H]2C(=O)N[C@H](C(=O)C(F)(F)F)C(C)C)C(C)C)on1 [Example 12, N-[(1S)-2-((2S)-2-{N-[(1S)-3,3,3-trifluoro-1-(methylethyl)-2-oxopropyl]carbamoyl}pyrrolidinyl)-1-(methylethyl)-2-oxoethyl]-[3-(methylethoxy)isoxazol-5-yl]carboxamide] |  |  | 7.80 |  | 66% |
| Cc1cc(C(=O)N[C@H](C(=O)N2CCC[C@H]2C(=O)N[C@H](C(=O)C(F)(F)F)C(C)C)C(C)C)no1 [Example 15, N-[(1S)-2-((2S)-2-{N-[(1S)-3,3,3-trifluoro-1-(methylethyl)-2-oxopropyl]carbamoyl}pyrrolidinyl)-1-(methylethyl)-2-oxoethyl]-(5-methylisoxazol-3-yl)carboxamide] |  | 0.62 mg/kg | 7.62 | all were alive |  |
| Cc1cc2onc(C(=O)N[C@H](C(=O)N3CCC[C@H]3C(=O)N[C@H](C(=O)C(F)(F)F)C(C)C)C(C)C)c2cc1C [Example 17, N-[(1S)-2-((2S)-2-{N-[(1S)-3,3,3-trifluoro-1-(methylethyl)-2-oxopropyl]carbamoyl}pyrrolidinyl)-1-(methylethyl)-2-oxoethyl]-(5,6-dimethylbenzo[d]isoxazol-3-yl)carboxamide] |  |  | 7.96 |  | 59% |
| CC(C)[C@H](NC(=O)c1cc(C(C)(C)C)n(C)n1)C(=O)N1CCC[C@H]1C(=O)N[C@H](C(=O)C(F)(F)F)C(C)C [Example 25, N-[(1S)-2-((2S)-2-{N-[(1S)-3,3,3-trifluoro-1-(methylethyl)-2-oxopropyl]carbamoyl}pyrrolidinyl)-1-(methylethyl)-2-oxoethyl]-(5-tert-butyl-1-methylpyrazol-3-yl)carboxamide] |  |  |  | all were alive |  |
| Cc1c(C(=O)N[C@H](C(=O)N2CCC[C@H]2C(=O)N[C@H](C(=O)C(F)(F)F)C(C)C)C(C)C)cnn1-c1ccc(Cl)cc1 [Example 38, N-[(1S)-2-((2S)-2-{N-[(1S)-3,3,3-trifluoro-1-(methylethyl)-2-oxopropyl]carbamoyl}pyrrolidinyl)-1-(methylethyl)-2-oxoethyl]-[1-(4-chlorophenyl)-5-methylpyrazol-4-yl]carboxamide] |  |  | 8.08 |  | 63% |
| COc1ccc(-n2ncc(C(=O)N[C@H](C(=O)N3CCC[C@H]3C(=O)N[C@H](C(=O)C(F)(F)F)C(C)C)C(C)C)c2C)cc1 [Example 40, N-[(1S)-2-((2S)-2-{N-[(1S)-3,3,3-trifluoro-1-(methylethyl)-2-oxopropyl]carbamoyl}pyrrolidinyl)-1-(methylethyl)-2-oxoethyl]-[5-methyl-1-(4-methoxyphenyl)pyrazol-4-yl]carboxamide] |  |  | 8.08 | all were alive | 70% |
| Cc1c(C(=O)N[C@H](C(=O)N2CCC[C@H]2C(=O)N[C@H](C(=O)C(F)(F)F)C(C)C)C(C)C)cnn1-c1ccccc1F [Example 45] |  |  | 8.08 |  | 58% |
| Cc1c(C(=O)N[C@H](C(=O)N2CCC[C@H]2C(=O)N[C@H](C(=O)C(F)(F)F)C(C)C)C(C)C)cnn1-c1ccc(C(F)(F)F)cc1 [Example 47, N-[(1S)-2-((2S)-2-{N-[(1S)-3,3,3-trifluoro-1-(methylethyl)-2-oxopropyl]carbamoyl}pyrrolidinyl)-1-(methylethyl)-2-oxoethyl]-{5-methyl-1-[4-(trifluoromethyl)phenyl]pyrazol-4-yl}carboxamide] |  |  | 7.82 |  | 60% |
